# From US20250388605A1, “HETEROBIFUNCTIONAL COMPOUNDS AND METHODS OF TREATING DISEASE” (Halda Therapeutics OpCo, Inc., priority 2022, published 2025)
# Assays:
# VCaP cells = test: Cellular growth inhibition assay for VCaP cells, CellTiter-Glo; type: cell-based, human; details: 72 hours
# Method in brief: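 GI50 values come from four-parameter curve fits of luminescence data normalized to a zero baseline. Compound, in medium with 0.5% DMSO, was added one day after plating and left for 72 h before CellTiter-Glo 2.0 addition.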
# T47D cells = test: Cellular Growth Inhibition Assay for T47D Cells (CellTiter-Glo); type: cell-based, human; details: 72 hours
# Method in brief: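 GI50 values derive from four-parameter regression of CellTiter-Glo 2.0 luminescence, using zero luminescence as baseline. Human breast cancer T47D cells (3000/well; DMEM, 10% FBS, 0.2 units/mL insulin) were exposed for 72 h to compound dilutions at 0.5% DMSO, with dosing starting 24 h after seeding.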
# [1] = test system: T-Rex 293 cell line SC3 cells having increased expression of androgen receptor protein due to exposure to doxycycline; test: Cellular growth inhibition, T-Rex 293 SC3 cells with doxycycline (increased androgen receptor expression), CellTiter-Glo; type: cell-based; details: T-Rex 293 SC3 cells with 10 ng/mL doxycycline (increased androgen receptor expression), 72 hours, CellTiter-Glo 2.0
# Method in brief: (§1)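 Growth inhibition is measured in an inducible AR-expressing T-Rex 293 clone, SC3, cultured with or without 10 ng/mL doxycycline in hormone-depleted medium. Test compounds are applied for 72 hours. GI50 values derive from CellTiter-Glo 2.0 signal fitted by four-parameter regression.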
# [2] = test system: T-Rex 293 cell line SC3 cells lacking increased expression of androgen receptor protein; test: Cellular growth inhibition, T-Rex 293 SC3 cells without doxycycline (no increased androgen receptor expression), CellTiter-Glo; type: cell-based; details: T-Rex 293 SC3 cells not exposed to doxycycline (no increased androgen receptor expression), 72 hours
# Method in brief: as §1
GI50 (VCaP cells),GI50 (T47D cells),GI50 (VCaP cells; Homo sapiens),GI50 (T47D cells; Homo sapiens),Structure (SMILES),GI50 [1],GI50 [2]
> 3000 nM,< 500 nM,,,Cn1cc(-c2cc(C(C)(C)O)ccc2Oc2cccc(CC3CCC4(CC3)CCN(c3ncc(C(=O)N[C@H]5C(C)(C)[C@H](Oc6ccc(C#N)c(Cl)c6)C5(C)C)cn3)CC4)c2)c2cc[nH]c2c1=O [Compound I-318],< 500 nM,> 3000 nM
< 500 nM,< 500 nM,,,Cn1cc(-c2cc(C(C)(C)O)ccc2Oc2ccc(N3CC(C4CC5(C4)CN(c4ncc(C(=O)N[C@H]6C(C)(C)[C@H](Oc7ccc(C#N)c(Cl)c7)C6(C)C)cn4)C5)C3)cc2)c2cc[nH]c2c1=O [Compound I-351],< 500 nM,< 500 nM
,,< 500 nM,< 500 nM,Cn1cc(-c2cc(C(C)(C)O)ccc2Oc2ccc(N3CC(CC4CCN(c5cnc(C(=O)N[C@H]6C(C)(C)[C@H](Oc7ccc(C#N)c(Cl)c7)C6(C)C)cn5)CC4)C3)cn2)c2cc[nH]c2c1=O [Compound I-346],< 500 nM,> 3000 nM
,,< 500 nM,1500 to 3000 nM,Cn1cc(-c2cc(N)ccc2Oc2cccc(OCCC3CCN(c4ncc(C(=O)N[C@H]5C(C)(C)[C@H](Oc6ccc(C#N)c(Cl)c6)C5(C)C)cn4)CC3)c2F)c2cc[nH]c2c1=O [Compound I-103],< 500 nM,> 3000 nM
500 to 1500 nM,500 to 1500 nM,,,Cn1cc(-c2cc(C(C)(C)O)ccc2OC(CCCCOC2CCN(c3ncc(C(=O)N[C@H]4C(C)(C)[C@H](Oc5ccc(C#N)c(Cl)c5)C4(C)C)cn3)CC2)C2CC2)c2cc[nH]c2c1=O (some centres unmarked) [Compound I-251],< 500 nM,500 to 1500 nM
> 3000 nM,< 500 nM,,,Cn1cc(-c2cc(NS(=O)(=O)C3CC3)ccc2Oc2cccc(N3CC(OC4CCN(c5ncc(C(=O)N[C@H]6C(C)(C)[C@H](Oc7ccc(C#N)c(Cl)c7)C6(C)C)cn5)CC4)C3)c2F)c2cc[nH]c2c1=O [Compound I-171],< 500 nM,> 3000 nM
< 500 nM,< 500 nM,,,Cn1cc(-c2cc(C(C)(C)O)ccc2Oc2ccc(C3CC(N4CC5(CN(c6ncc(C(=O)N[C@H]7C(C)(C)[C@H](Oc8ccc(C#N)c(Cl)c8)C7(C)C)cn6)C5)C4)C3)cc2)c2cc[nH]c2c1=O (some centres unmarked) [Compound I-331],< 500 nM,< 500 nM
< 500 nM,< 500 nM,,,Cn1cc(-c2cc(C(C)(C)O)ccc2Oc2ccc(N3CC4(C3)CN(c3ncc(C(=O)N[C@H]5C(C)(C)[C@H](Oc6ccc(C#N)c(Cl)c6)C5(C)C)cn3)C4)cc2)c2cc[nH]c2c1=O [Compound I-330],< 500 nM,< 500 nM
,,< 500 nM,< 500 nM,CCS(=O)(=O)Cc1ccc(Oc2cccc(N3CC(N4CCN(c5ncc(C(=O)N[C@H]6C(C)(C)[C@H](Oc7ccc(C#N)c(Cl)c7)C6(C)C)cn5)CC4)C3)c2)c(-c2cn(C)c(=O)c3[nH]ccc23)c1 [Compound I-114],< 500 nM,< 500 nM
< 500 nM,< 500 nM,,,Cn1cc(-c2cc(C(C)(C)O)ccc2Oc2ccc(CN3CC4(C3)CN(c3ncc(C(=O)N[C@H]5C(C)(C)[C@H](Oc6ccc(C#N)c(Cl)c6)C5(C)C)cn3)CCO4)cc2)c2cc[nH]c2c1=O [Compound I-300],< 500 nM,< 500 nM
,,< 500 nM,< 500 nM,CCS(=O)(=O)Nc1ccc(Oc2ccc(N3CC(CC4CCN(c5ncc(C(=O)N[C@H]6C(C)(C)[C@H](Oc7ccc(C#N)c(Cl)c7)C6(C)C)cn5)CC4)C3)cc2)c(-c2cn(C)c(=O)c3[nH]ccc23)c1 [Compound I-337],< 500 nM,> 3000 nM
,,< 500 nM,< 500 nM,CCS(=O)(=O)Nc1ccc(Oc2cccc(OC3CCN(C4CCN(c5ncc(C(=O)N[C@H]6C(C)(C)[C@H](Oc7ccc(C#N)c(Cl)c7)C6(C)C)cn5)CC4)C3)c2)c(-c2cn(C)c(=O)c3[nH]ccc23)c1 (some centres unmarked) [Compound I-43],< 500 nM,1500 to 3000 nM
,,< 500 nM,< 500 nM,CCS(=O)(=O)Nc1ccc(Oc2cccc(N3CCC(OC4CCN(c5ncc(C(=O)N[C@H]6C(C)(C)[C@H](Oc7ccc(C#N)c(Cl)c7)C6(C)C)cn5)CC4)C3)c2)c(-c2cn(C)c(=O)c3[nH]ccc23)c1 (some centres unmarked) [Compound I-81],< 500 nM,> 3000 nM
< 500 nM,< 500 nM,,,Cn1cc(-c2cc(C(C)(C)O)ccc2Oc2cccc(N3CC(CN4CC5CC4CN5c4ncc(C(=O)N[C@H]5C(C)(C)[C@H](Oc6ccc(C#N)c(Cl)c6)C5(C)C)cn4)C3)c2F)c2cc[nH]c2c1=O (some centres unmarked) [Compound I-241],< 500 nM,< 500 nM
< 500 nM,< 500 nM,,,Cn1cc(-c2cc(C(C)(C)O)ccc2Oc2ccc(C3CC(N4CCN(c5ncc(C(=O)N[C@H]6C(C)(C)[C@H](Oc7ccc(C#N)c(Cl)c7)C6(C)C)cn5)CC4)C3)cc2)c2cc[nH]c2c1=O (some centres unmarked) [Compound I-311],< 500 nM,500 to 1500 nM
,,< 500 nM,< 500 nM,CCS(=O)(=O)Nc1ccc(Oc2cccc(C3CC(N4CCN(c5ncc(C(=O)N[C@H]6C(C)(C)[C@H](Oc7ccc(C#N)c(Cl)c7)C6(C)C)cn5)CC4)C3)c2)c(-c2cn(C)c(=O)c3[nH]ccc23)c1 (some centres unmarked) [Compound I-180],< 500 nM,> 3000 nM
< 500 nM,< 500 nM,,,Cn1cc(-c2ccccc2Oc2cccc(CCOC3CCN(c4ncc(C(=O)N[C@H]5C(C)(C)[C@H](Oc6ccc(C#N)c(Cl)c6)C5(C)C)cn4)CC3)c2)c2cc[nH]c2c1=O [Compound I-146],< 500 nM,> 3000 nM
,,500 to 1500 nM,< 500 nM,"Cn1cc(-c2cc(C(C)(C)O)ccc2Oc2ccc(CCC3CCN(c4ncc(C(=O)NC5C(C)(C)C(Oc6ccc(C#N)c(Cl)c6)C5(C)C)cn4)CC3)cn2)c2cc[nH]c2c1=O (centres unmarked) [Compound I-287, N-[3-(3-chloro-4-cyano-phenoxy)-2,2,4,4-tetramethyl-cyclobutyl]-2-[4-[2-[6-[4-(1-hydroxy-1-methyl-ethyl)-2-(6-methyl-7-oxo-1H-pyrrolo[2,3-c]pyridin-4-yl)phenoxy]-3-pyridyl]ethyl]-1-piperidyl]pyrimidine-5-carboxamide]",< 500 nM,> 3000 nM
< 500 nM,< 500 nM,,,CCS(=O)(=O)Nc1ccc(Oc2cccc(N3CC(N(C)C4CCN(c5ncc(C(=O)N[C@H]6C(C)(C)[C@H](Oc7ccc(C#N)c(Cl)c7)C6(C)C)cn5)CC4)C3)c2F)c(-c2cn(C)c(=O)c3[nH]ccc23)c1 [Compound I-178],< 500 nM,< 500 nM
< 500 nM,< 500 nM,,,CCS(=O)(=O)Nc1ccc(Oc2ccc(OCC3CCN(c4ncc(C(=O)N[C@H]5C(C)(C)[C@H](Oc6ccc(Cl)c(C#N)c6)C5(C)C)cn4)CC3)cc2)c(-c2cn(C)c(=O)c3[nH]ccc23)c1 [Compound I-277],< 500 nM,< 500 nM
< 500 nM,500 to 1500 nM,,,Cn1cc(-c2cc(C(C)(C)O)ccc2Oc2cccc(OC3CCC4(CC3)CCN(c3ncc(C(=O)N[C@H]5C(C)(C)[C@H](Oc6ccc(C#N)c(Cl)c6)C5(C)C)cn3)CC4)c2)c2cc[nH]c2c1=O [Compound I-314],< 500 nM,> 3000 nM
,,< 500 nM,< 500 nM,CCS(=O)(=O)Nc1ccc(Oc2cccc(N3CCC(C4CN(c5ncc(C(=O)N[C@H]6C(C)(C)[C@H](Oc7ccc(C#N)c(Cl)c7)C6(C)C)cn5)C4)CC3)c2)c(-c2cn(C)c(=O)c3[nH]ccc23)c1 [Compound I-182],< 500 nM,> 3000 nM
< 500 nM,< 500 nM,,,Cn1cc(-c2cc(C(C)(C)O)ccc2Oc2ccc(N3CC4(CCCN(c5cnc(C(=O)N[C@H]6C(C)(C)[C@H](Oc7ccc(C#N)c(Cl)c7)C6(C)C)cn5)C4)C3)cc2)c2cc[nH]c2c1=O [Compound I-342],< 500 nM,> 3000 nM
< 500 nM,< 500 nM,,,CCS(=O)(=O)c1ccc(Oc2ccc(N3CC(C4CCN(c5ncc(C(=O)N[C@H]6C(C)(C)[C@H](Oc7ccc(C#N)c(Cl)c7)C6(C)C)cn5)CC4)C3)cc2)c(-c2cn(C)c(=O)c3[nH]ccc23)c1 [Compound I-291],< 500 nM,< 500 nM
,,< 500 nM,< 500 nM,CCS(=O)(=O)Nc1ccc(Oc2cccc(COC3CCN(c4ncc(C(=O)N[C@H]5C(C)(C)[C@H](Oc6ccc(C#N)c(Cl)c6)C5(C)C)cn4)CC3)c2F)c(-c2cn(C)c(=O)c3[nH]ccc23)c1 [Compound I-164],< 500 nM,> 3000 nM
,,> 3000 nM,< 500 nM,"Cn1cc(-c2cc(S(C)(=O)=O)ccc2Oc2cccc(N3CC(CC4CCN(c5ncc(C(=O)NC6C(C)(C)C(Oc7ccc(C#N)c(Cl)c7)C6(C)C)cn5)CC4)C3)c2F)c2cc[nH]c2c1=O (centres unmarked) [Compound I-189, N-[3-(3-chloro-4-cyano-phenoxy)-2,2,4,4-tetramethyl-cyclobutyl]-2-[4-[[1-[2-fluoro-3-[2-(6-methyl-7-oxo-1H-pyrrolo[2,3-c]pyridin-4-yl)-4-methylsulfonyl-phenoxy]phenyl]azetidin-3-yl]methyl]-1-piperidyl]pyrimidine-5-carboxamide]",< 500 nM,> 3000 nM
